# Results reported in patent publication US20050101595A1, “N-containing cycloalkyl-substituted amino-thiazole derivatives and pharmaceutical compositions for inhibiting cell proliferation and methods for their use” (PFIZER INC., priority 2003, published 2005).
# Structures can show the parent of a compound that is named as a salt. Where two headings read alike, the source gives them in different places.
# Tests used:
# [1] = biological target: human CDK4 and genetically truncated (1-264) cyclin D3 (Homo sapiens, UniProt P11802); test: Inhibition of CDK4/Cyclin D Retinoblastoma Kinase Activity; assay type: biochemical; conditions: for Ki: apparent Ki, CDK4/truncated cyclin D3, Rb fragment substrate, 25 μM ATP
# Chain of human CDK4 and genetically truncated (1-264) cyclin D3 (P11802 whole entry, the tested form may be a part): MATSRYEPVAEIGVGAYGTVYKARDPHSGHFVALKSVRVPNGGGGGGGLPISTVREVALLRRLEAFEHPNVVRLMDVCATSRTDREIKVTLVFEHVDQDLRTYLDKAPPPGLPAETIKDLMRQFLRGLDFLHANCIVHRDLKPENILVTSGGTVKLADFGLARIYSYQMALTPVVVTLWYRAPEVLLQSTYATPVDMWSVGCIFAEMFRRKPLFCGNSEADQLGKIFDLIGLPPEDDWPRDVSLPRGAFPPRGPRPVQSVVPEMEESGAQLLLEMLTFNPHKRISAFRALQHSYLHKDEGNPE
# Chain of human CDK4 and genetically truncated (1-264) cyclin D3 (P30281 1-264 partner): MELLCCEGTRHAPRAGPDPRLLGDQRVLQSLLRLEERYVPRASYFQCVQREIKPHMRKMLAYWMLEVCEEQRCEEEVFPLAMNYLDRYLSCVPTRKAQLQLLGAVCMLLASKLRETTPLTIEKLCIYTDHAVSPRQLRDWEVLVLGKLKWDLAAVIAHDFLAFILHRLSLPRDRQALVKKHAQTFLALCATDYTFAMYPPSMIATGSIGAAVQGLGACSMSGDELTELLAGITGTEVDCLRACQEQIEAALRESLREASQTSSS
# Summary of the method: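 Apparent Ki values derive from fitting activity at varied inhibitor concentrations to a competitive (or competitive tight-binding) model. Kinase reactions used 5 nM CDK4/cyclin D3(1-264), Rb fragment substrate and 25 μM ATP. Incubation ran 20 min at 30 °C, extended to 60 min under linear conditions for tight binders.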
# [2] = biological target: CDK2/Cyclin A (Homo sapiens, UniProt P24941); test: Inhibition of CDK2/Cyclin A Retinoblastoma Kinase Activity; assay type: biochemical; conditions: for Ki: apparent Ki, CDK2/proteolyzed cyclin A, Rb fragment substrate, 25 μM ATP; for CDK2 % Inhibition At 0.03 μM: Table 2
# Summary of the method: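 Percent inhibition is calculated against DMSO-only wells after subtracting no-enzyme background. The enzyme is human CDK2 complexed with proteolyzed cyclin A, used at 10 nM or 19 nM on an Rb fragment with 25 μM [32/33P]ATP, at pH 7.4 and 30° C.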
# [3] = system: HCT-116 cell line; test: Inhibition of cell growth, tetrazolium salt (MTT) assay; assay type: cell-based; conditions: for IC50: Homo sapiens, HCT-116, 120 h, MTT, three to five days, read-out: HCT-116 IC50; for HCT-116 % Inhibition at 0.25 μM: 0.25 μM compound
# Summary of the method: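 First, cells were seeded in McCoy's 5A medium and held 4 h. Next, inhibitor concentrations in 0.5% (v/v) DMSO were applied for three to five days at 37° C, 5% CO2. Finally, after 4 h with 0.2 mg/mL MTT and medium removal, solubilized formazan was measured at 540 nm.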
# [4] = 0.1 μM compound, HCT-116, Table 4
# [5] = 0.1 μM compound, HCT-116, Table 3
# [6] = 0.03 μM compound, Table 4, 0.03 µM
compound,measurement,setting,value
"CC1(C)CN=C(c2ccc(S(=O)(=O)N3CCC(Nc4nc(N)c(C(=O)c5c(F)cccc5F)s4)CC3)cc2)N1 [Example J2, 1-(4-Amino-2-{1-[4-(5,5-dimethyl-4,5-dihydro-1H-imidazol-2-yl)-benzenesulfonyl]-piperidin-4-ylamino}-thiazol-5-yl)-1-(2,6-difluoro-phenyl)-methanone]",Ki,[1],0.18 nM
same,Ki,[2],< 1 nM
same,IC50,[3]; first HCT-116 column (c4),500 nM
same,IC50,[3]; second HCT-116 column (c5),1800 nM
N#Cc1cccc(C(=O)N2CCC(Nc3nc(N)c(C(=O)c4c(F)cccc4F)s3)CC2)c1 [Example Q77],CDK4 % Inhibition at 0.03 μM,"[1]; 0.03 μM compound, Table 4",72%
same,CDK2 % Inhibition at 0.03 μM,"[2]; 0.03 μM compound, Table 4",44%
same,HCT-116 % Inhibition at 0.1 μM,[3]; [4],8%
same,HCT-116 % Inhibition at 0.25 μM,"[3]; HCT-116, Table 4",33%
COc1ccc(Cl)cc1S(=O)(=O)N1CCC(Nc2nc(N)c(C(=O)c3c(F)cccc3F)s2)CC1 [Example P56],CDK4 % Inhibition at 0.03 μM,"[1]; 0.03 μM compound, Table 3",26%
same,CDK2 % Inhibition at 0.03 μM,"[2]; 0.03 μM compound, Table 3",21%
same,HCT-116 % Inhibition at 0.1 μM,[3]; [5],20%
same,HCT-116 % Inhibition at 0.25 μM,"[3]; HCT-116, Table 3",34%
Nc1nc(NC2CCN(C(=O)c3c(Cl)cccc3Cl)CC2)sc1C(=O)c1c(F)cccc1F [Example R110],CDK4 % Inhibition at 0.03 μM,[1]; at 0.03 μM,30%
same,CDK2 % Inhibition at 0.03 μM,[2]; at 0.03 μM,24%
same,HCT-116 % Inhibition at 0.1 μM,"[3]; HCT-116 cells, at 0.1 μM",3%
same,HCT-116 5 Inhibition at 0.25 μM,[3]; HCT-116 cells,48
CCOC(=O)CCCCCNC(=O)N1CCC(Nc2nc(N)c(C(=O)c3c(F)cccc3F)s2)CC1 [Example O70],CDK4 % Inhibition at 0.03 μM,"[1]; 0.03 μM compound, Table 2",7%
same,CDK2 % Inhibition At 0.03 μM,[2]; 0.03 μM compound,28%
same,HCT-116 % Inhibition at 0.25 μM,"[3]; HCT-116, Table 2",52%
"Nc1nc(NC2CCN(S(=O)(=O)c3cccnc3)CC2)sc1C(=O)c1c(F)cccc1F [Example F23, 1-{4-Amino-2-[1-(pyridine-3-sulfonyl)-piperidin-4-ylamino]-thiazol-5-yl}-1-(2,6-difluoro-phenyl)-methanone]",Ki,[1],4.8 nM
same,Ki,[2],2.8 nM
same,IC50,[3]; first HCT-116 column (c4),130 nM
same,IC50,[3]; second HCT-116 column (c5),300 nM
COc1c(C(=O)N2CCC(Nc3nc(N)c(C(=O)c4c(F)cccc4F)s3)CC2)csc1Br [Example R50],CDK4 % Inhibition at 0.03 μM,[1]; at 0.03 μM,44%
same,CDK2 % Inhibition at 0.03 μM,[2]; at 0.03 μM,51%
same,HCT-116 % Inhibition at 0.1 μM,"[3]; HCT-116 cells, at 0.1 μM",0%
same,HCT-116 5 Inhibition at 0.25 μM,[3]; HCT-116 cells,48
Cc1cc(C(=O)N2CCC(Nc3nc(N)c(C(=O)c4c(F)cccc4F)s3)CC2)n(C(C)(C)C)n1 [Example R59],CDK4 % Inhibition at 0.03 μM,[1]; at 0.03 μM,25%
same,CDK2 % Inhibition at 0.03 μM,[2]; at 0.03 μM,16%
same,HCT-116 % Inhibition at 0.1 μM,"[3]; HCT-116 cells, at 0.1 μM",4%
same,HCT-116 5 Inhibition at 0.25 μM,[3]; HCT-116 cells,47
Cc1oc(-c2ccccc2)cc1C(=O)N1CCC(Nc2nc(N)c(C(=O)c3c(F)cccc3F)s2)CC1 [Example R77],CDK4 % Inhibition at 0.03 μM,[1]; at 0.03 μM,15%
same,CDK2 % Inhibition at 0.03 μM,[2]; at 0.03 μM,19%
same,HCT-116 % Inhibition at 0.1 μM,"[3]; HCT-116 cells, at 0.1 μM",0%
same,HCT-116 5 Inhibition at 0.25 μM,[3]; HCT-116 cells,44
Nc1nc(NC2CCN(C(=O)OCC3c4ccccc4-c4ccccc43)CC2)sc1C(=O)c1c(F)cccc1F [Example Q82],CDK4 % Inhibition at 0.03 μM,"[1]; 0.03 μM compound, Table 4",15%
same,CDK2 % Inhibition at 0.03 μM,"[2]; 0.03 μM compound, Table 4",−12%
same,HCT-116 % Inhibition at 0.1 μM,[3]; [4],0%
same,HCT-116 % Inhibition at 0.25 μM,"[3]; HCT-116, Table 4",28%
CSc1ccc(C(=O)N2CCC(Nc3nc(N)c(C(=O)c4c(F)cccc4F)s3)CC2)cc1 [Example R150],CDK4 % Inhibition at 0.03 μM,[1]; at 0.03 μM,62%
same,CDK2 % Inhibition at 0.03 μM,[2]; at 0.03 μM,40%
same,HCT-116 % Inhibition at 0.1 μM,"[3]; HCT-116 cells, at 0.1 μM",2%
same,HCT-116 5 Inhibition at 0.25 μM,[3]; HCT-116 cells,39
Nc1nc(NC2CCN(C(=O)CCc3ccccc3)CC2)sc1C(=O)c1c(F)cccc1F [Example R174],CDK4 % Inhibition at 0.03 μM,[1]; at 0.03 μM,42%
same,CDK2 % Inhibition at 0.03 μM,[2]; at 0.03 μM,21%
same,HCT-116 % Inhibition at 0.1 μM,"[3]; HCT-116 cells, at 0.1 μM",0%
same,HCT-116 5 Inhibition at 0.25 μM,[3]; HCT-116 cells,48
"Nc1nc(NC2CN(C(c3ccccc3)c3ccccc3)C2)sc1C(=O)c1c(F)cccc1F [Example A14, [4-Amino-2-(1-benzhydryl-azetidin-3-ylamino)-thiazol-5-yl]-(2,6-difluoro-phenyl)-methanone]",Ki,[1],> 2000 nM
same,Ki,[2],> 2000 nM
same,IC50,[3]; first HCT-116 column (c4),> 5000 nM
same,IC50,[3]; second HCT-116 column (c5),> 5000 nM
CCCNC(=O)N1CCC(Nc2nc(N)c(C(=O)c3c(F)cccc3F)s2)CC1 [Example O33],CDK4 % Inhibition at 0.03 μM,"[1]; 0.03 μM compound, Table 2",−3%
same,CDK2 % Inhibition At 0.03 μM,[2]; 0.03 μM compound,30%
same,HCT-116 % Inhibition at 0.25 μM,"[3]; HCT-116, Table 2",31%
"Nc1nc(NC2CCN(S(=O)(=O)Nc3ccccc3)CC2)sc1C(=O)c1c(F)cccc1F [Example E2, 4-[4-Amino-5-(2,6-difluoro-benzoyl)-thiazol-2-ylamino]-piperidine-1-sulfonic acid phenylamide]",Ki,[1],3.9 nM
same,Ki,[2],1.2 nM
same,IC50,[3]; first HCT-116 column (c4),680 nM
same,IC50,[3]; second HCT-116 column (c5),1300 nM
Nc1nc(NC2CCN(C(=O)C3(c4ccc(Cl)cc4)CC3)CC2)sc1C(=O)c1c(F)cccc1F [Example R91],CDK4 % Inhibition at 0.03 μM,[1]; at 0.03 μM,14%
same,CDK2 % Inhibition at 0.03 μM,[2]; at 0.03 μM,−1%
same,HCT-116 % Inhibition at 0.1 μM,"[3]; HCT-116 cells, at 0.1 μM",2%
same,HCT-116 5 Inhibition at 0.25 μM,[3]; HCT-116 cells,41
"Nc1nc(NC2CCN(S(=O)(=O)CCN(CC3CC3)CC3CC3)CC2)sc1C(=O)c1c(F)cccc1F [Example K54, (4-Amino-2-{1-[2-(bis-cyclopropylmethyl-amino)-ethanesulfonyl]-piperidin-4-ylamino}-thiazol-5-yl)-(2,6-difluoro-phenyl)-methanone]",Ki,[1],1.3 nM
same,Ki,[2],5 nM
same,IC50,[3]; first HCT-116 column (c4),280 nM
same,IC50,[3]; second HCT-116 column (c5),800 nM
"Nc1nc(NC2CCN(C(=O)c3ccc(F)c(Cl)c3)CC2)sc1C(=O)c1c(F)cccc1F [Example D8, 1-(4-Amino-2-{1-[1-(3-chloro-4-fluoro-phenyl)-methanoyl]-piperidin-4-ylamino}-thiazol-5-yl)-1-(2,6-difluoro-phenyl)-methanone]",Ki,[1],9.6 nM
same,Ki,[2],99 nM
same,IC50,[3]; first HCT-116 column (c4),97 nM
same,IC50,[3]; second HCT-116 column (c5),250 nM
"CN(CCS(=O)(=O)N1CCC(Nc2nc(N)c(C(=O)c3c(F)cccc3F)s2)CC1)c1ccccc1 [Example K37, (4-Amino-2-{1-[2-(methyl-phenyl-amino)-ethanesulfonyl]-piperidin-4-ylamino}-thiazol-5-yl)-(2,6-difluoro-phenyl)-methanone Trifluoroacetic Acid Salt.]",Ki,[1],3.2 nM
same,Ki,[2],7 nM
same,IC50,[3]; first HCT-116 column (c4),310 nM
same,IC50,[3]; second HCT-116 column (c5),1300 nM
CCCCOc1ccc(C(=O)N2CCC(Nc3nc(N)c(C(=O)c4c(F)cccc4F)s3)CC2)cc1 [Example Q29],CDK4 % Inhibition at 0.03 μM,"[1]; 0.03 μM compound, Table 4",60%
same,CDK2 % Inhibition at 0.03 μM,"[2]; 0.03 μM compound, Table 4",21%
same,HCT-116 % Inhibition at 0.1 μM,[3]; [4],7%
same,HCT-116 % Inhibition at 0.25 μM,"[3]; HCT-116, Table 4",50%
CCCCCCOc1ccc(C(=O)N2CCC(Nc3nc(N)c(C(=O)c4c(F)cccc4F)s3)CC2)cc1 [Example Q30],CDK4 % Inhibition at 0.03 μM,[1]; [6],42%
same,CDK2 % Inhibition at 0.03 μM,[2]; [6],−4%
same,HCT-116 % Inhibition at 0.1 μM,[3]; [4],8%
same,HCT-116 % Inhibition at 0.25 μM,"[3]; HCT-116, Table 4, 0.25 µM",47%
Nc1nc(NC2CCN(S(=O)(=O)c3c(Cl)cc(Cl)cc3Cl)CC2)sc1C(=O)c1c(F)cccc1F [Example P57],CDK4 % Inhibition at 0.03 μM,"[1]; 0.03 μM compound, Table 3",6%
same,CDK2 % Inhibition at 0.03 μM,"[2]; 0.03 μM compound, Table 3",23%
same,HCT-116 % Inhibition at 0.1 μM,[3]; [5],9%
same,HCT-116 % Inhibition at 0.25 μM,"[3]; HCT-116, Table 3",31%
Nc1nc(NC2CCN(C(=O)c3ccc(Br)cc3)CC2)sc1C(=O)c1c(F)cccc1F [Example D11],Ki,[1],31 nM
same,Ki,[2],81 nM
same,IC50,[3]; first HCT-116 column (c4),720 nM
same,IC50,[3]; second HCT-116 column (c5),1800 nM
"Nc1nc(NC2CCN(S(=O)(=O)c3ccc(N4CCN(C=O)CC4)nc3)CC2)sc1C(=O)c1c(F)cccc1F [Example G16, Trifluoroacetic Acid Salt]",Ki,[1],0.63 nM
same,Ki,[2],0.51 nM
same,IC50,[3]; first HCT-116 column (c4),290 nM
same,IC50,[3]; second HCT-116 column (c5),> 5000 nM
